# Measurements as given in US20250312469A1 (CANGET BIOTEKPHARMA, priority 2024, published 2025).
# Columns and labels:
# [1] = test system: Agrin mRNA; test: Real-time RT-PCR of Agrin mRNA in Panc-1 and MiaPaca2 cells; type: cell-based, human
# Protocol: Real time quantitative (q) RT-PCR: Real time RT-PCR methods were described previously (9, 56). Pertinent to this study, total RNAs were extracted from cancer cells using TRI REAGENT RT (Molecular Research Center), and 5 μg per sample was converted to cDNA with anchored oligo (dT) primers using RevertAid First Strand cDNA Synthesis Kit (Thermo Fisher Scientific, Catalog No. K1622) following the manufacturer's instructions. Individual reverse transcription (RT) reactions of 20 μL were then diluted to 200 μL with sterile H2O. Five microliters of diluted RT reaction were used for real-time qPCR using Maxima SYBR Green/ROX qPCR Master Mix (2×, Thermo Fisher Scientific, Catalog No. K0223). The primers used in qPCR were as follows: 5′-GGC GCA CAG CAC AAG AGG-3′ (DDX5 qPCR-F, forward) and 5′-ATGGCAGGAAGCAAATAAGACAA-3′ (DDX5 qPCR-R, reverse); 5′-CTTCTGCTTCAAGGAGCTGGAAG-3′ (hsv5p2, survivin, forward) and 5′-GCACTTTCTTCGCAGTTTCCTC-3′ (hvs3p2, survivin, reverse); 5′-CCACAGCAAACCTCCTCACAG-3′ (myc5, c-Myc, forward) and 5′-GCAGGATAGTCCTTCCGAGTG-3′ (myc3, c-Myc, reverse); 5′-GTCTCCTCTGACTTCAACAGCG-3′ (hGAPDH-5, forward) and 5′-ACCACCCTGTTGCTGTAGCCAA-3′ (hGAPDH-3, reverse). GAPDH was used as an internal control. […] The data were analyzed using the Applied Biosystems 7300 Real Time PCR System and normalized to GAPDH.
# [2] = Liver microsome stability; settings: for microsomal CLint at 0.5 μM / half-life at 0.5 μM: both; for microsomal CLint at 0.5 μM: CLint (intrinsic clearance); for microsomal CLint at 0.5 μM / half-life at 0.5 μM / % Remaining of Initial (n = 1): human liver microsome
# [3] = target: T1, USP2a (Homo sapiens, UniProt O75604); test: Cell-based polyUb/MdmX and USP2a mRNA/protein analysis in PCa cells; design: purchased Invitrogen ProtoArray Human Protein Microarray v5.0
# T1 sequence (O75604 1-605): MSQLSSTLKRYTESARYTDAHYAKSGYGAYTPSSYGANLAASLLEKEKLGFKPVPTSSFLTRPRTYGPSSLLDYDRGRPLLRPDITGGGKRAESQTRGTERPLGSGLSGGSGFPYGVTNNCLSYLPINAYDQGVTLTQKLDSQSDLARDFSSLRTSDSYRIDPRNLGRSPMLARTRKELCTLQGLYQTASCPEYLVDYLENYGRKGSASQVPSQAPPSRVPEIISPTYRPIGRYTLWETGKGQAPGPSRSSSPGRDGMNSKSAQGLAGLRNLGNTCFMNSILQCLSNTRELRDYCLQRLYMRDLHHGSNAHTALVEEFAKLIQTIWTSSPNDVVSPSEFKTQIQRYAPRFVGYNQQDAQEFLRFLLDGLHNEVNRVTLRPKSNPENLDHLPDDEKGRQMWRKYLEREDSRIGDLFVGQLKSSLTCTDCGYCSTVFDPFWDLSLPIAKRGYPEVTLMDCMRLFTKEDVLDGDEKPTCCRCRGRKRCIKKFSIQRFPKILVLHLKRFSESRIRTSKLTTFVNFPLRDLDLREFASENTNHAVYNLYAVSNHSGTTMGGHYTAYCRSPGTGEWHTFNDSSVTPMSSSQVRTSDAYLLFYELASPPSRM
# Protocol: Each bar is the mean±SD from 3 independent analyses; the t-test was used for P-values: * P≤0.5; ** P≤0.01; *** P≤0.001.
# Twenty to fifty μg total protein from each sample (cell lysis or tumor tissue lysis) were heated at 95° C. for 5 minutes after mixing with equal volumes of 2× SDS loading buffer. […] Next, the membrane was incubated with different primary antibodies in TBS-T containing 5% BSA overnight at 4° C. in the range of dilutions from 1:500 to 1:2000 based on the antibody dilution recommended by antibody firms. […] Proteins of interest were detected using Western Lightning ECL-Plus (Perkin Elmer, Waltham, MA) and visualized by various times (3-120 seconds) of exposure. Actin, tubulin and/or GAPDH were detected as the internal control to normalize total protein loading for each sample.
# Pertinent to this study, total RNAs were extracted from cancer cells using TRI REAGENT RT (Molecular Research Center), and 5 μg per sample was converted to cDNA with anchored oligo (dT) primers using RevertAid First Strand cDNA Synthesis Kit (Thermo Fisher Scientific, Catalog No. K1622) following the manufacturer's instructions. […] The data were analyzed using the Applied Biosystems 7300 Real Time PCR System and normalized to GAPDH.
# [4] = target: DDX5 (Homo sapiens, UniProt P17844); test: FL118 affinity column purification and mass spectrometry; type: binding; settings: SW620 protein lysates
# DDX5, sequence (P17844 whole entry): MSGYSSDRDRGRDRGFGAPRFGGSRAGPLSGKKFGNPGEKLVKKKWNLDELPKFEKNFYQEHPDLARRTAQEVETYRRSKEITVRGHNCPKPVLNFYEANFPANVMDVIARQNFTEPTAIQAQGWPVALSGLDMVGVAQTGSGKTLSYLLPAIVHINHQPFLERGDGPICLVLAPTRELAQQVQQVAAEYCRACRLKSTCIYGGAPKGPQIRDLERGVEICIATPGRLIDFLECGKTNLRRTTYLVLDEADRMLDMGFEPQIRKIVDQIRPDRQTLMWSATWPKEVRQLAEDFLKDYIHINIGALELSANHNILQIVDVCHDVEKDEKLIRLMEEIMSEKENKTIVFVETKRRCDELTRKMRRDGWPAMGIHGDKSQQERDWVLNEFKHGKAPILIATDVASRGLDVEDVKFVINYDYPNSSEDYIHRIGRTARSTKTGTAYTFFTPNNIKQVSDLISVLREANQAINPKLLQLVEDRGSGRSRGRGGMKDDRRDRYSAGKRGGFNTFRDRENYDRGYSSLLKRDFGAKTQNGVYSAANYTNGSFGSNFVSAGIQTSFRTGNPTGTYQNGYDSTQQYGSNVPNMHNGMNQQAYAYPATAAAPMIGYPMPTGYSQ
# Protocol: The process includes many experimental steps as described below.
# Affinity purification column setup: (i) transfer the control resin slurry and the FL118-coupled resin slurry into two columns, respectively; (ii) allow resin to settle and then open the bottom cap to allow the solution to flow out to drain all the reaction solution; (iii) washing the column with 2 ml CB, and then with 2 ml ultrapure water/DMSO solution (75:25). […] Then additional 3×4 ml tris washing buffer (0.1 M Tris, pH 8.0).
# After extensive washing with washing buffer, the proteins binding on the column were eluted with 8M urea buffers.
# After digestion, the tryptic products were extracted twice and dried; the dried peptides were then reconstituted in 10 μL of 2% (v/v) formic acid for analysis with Liquid Chromatography Tandem Mass Spectrometry (LC-ESI-MS/MS). LC-ESI-MS/MS analysis of peptides was performed using a nano-ACQUITY UPLC system (Waters Corporation, Milford, MA) coupled through a nano-spray ionization source to a Quadrupole-Time-of-Flight (Q-ToF) Premier mass spectrometer (Micromass, Waters Corporation). […] The criteria used to identify the proteins included ion scores equal to or greater than the threshold significant ion score ([…]), and similarity between the observed protein molecular mass from gel electrophoresis and the calculated molecular mass provided in the database. […]
smiles,measurement,setting,value
CCC1(O)C(=O)OCc2c1cc1n(c2=O)Cc2cc3cc4c(cc3nc2-1)OCO4 (centres unmarked) [FL118],Agrin mRNA,[1],inhibits Agrin mRNA
same,microsomal CLint at 0.5 μM,"[2]; human, microsomes, calculated (in parentheses)",18.6 µL/min/mg
same,microsomal CLint at 0.5 μM,"[2]; human, microsomes, bound",< 23.1 µL/min/mg
same,half-life at 0.5 μM,"[2]; human, microsomes, calculated (in parentheses), calculated half-life longer than the experiment",75 min
same,half-life at 0.5 μM,"[2]; human, microsomes, expressed as > the longest incubation time (60 min)",> 60 min
same,% Remaining of Initial (n = 1),[2]; 0 min,100%
same,% Remaining of Initial (n = 1),[2]; 10 min,93%
same,% Remaining of Initial (n = 1),[2]; 20 min,82%
same,% Remaining of Initial (n = 1),[2]; 30 min,76%
same,% Remaining of Initial (n = 1),[2]; 60 min,58%
same,half-life,"[2]; human, microsomes",long half-life
same,USP2a mRNA and protein level,[3],USP2a increases
same,polyUb-mediated MdmX degradation in cells,[3],promotes polyUb-mediated MdmX degradation
same,"binding to DDX5 (affinity purification, MS)",[4],physically binds
